Source: PubChem BioAssay AID1918940 (Molecular Pharmacology Branch, DTP, NCI, 2023)

Tested on: NCI-H211 complex spheroid viability
Experiment: Anticancer human tumor NCI-H211 cell line growth inhibition [LSD1];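 also: luminescent viability read after seven days of drug exposure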;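 as to viability, T/C: 100% = DMSO vehicle control viability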
Settings: for IC50: curve of first compound; for viability, T/C: stronger effect = lower value; active = viability on the fitted dose curve at most 10% of control; inactive = the rest
Method in brief: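 Drug combinations with the LSD1 inhibitor iadademstat tested on tumor cells co-cultured as spheroids with endothelial cells and mesenchymal stem cells. Concentrations descended in half-log increments from clinical Cmax or 10 microM.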

[1] = second compound 0.1 µM, first compound 0.00949 µM
[2] = second compound 0.1 µM, first compound 0.03 µM
[3] = second compound 0.1 µM, first compound 0.0949 µM
[4] = second compound 0.1 µM, first compound 0.3 µM
[5] = second compound 0.316 µM, first compound 0.00949 µM
[6] = second compound 0.316 µM, first compound 0.03 µM
[7] = second compound 0.316 µM, first compound 0.0949 µM
[8] = second compound 0.316 µM, first compound 0.3 µM
[9] = second compound 1 µM, first compound 0.00949 µM
[10] = second compound 1 µM, first compound 0.03 µM
[11] = second compound 1 µM, first compound 0.0949 µM
[12] = second compound 1 µM, first compound 0.3 µM
[13] = second compound 3.16 µM, first compound 0.00949 µM
[14] = second compound 3.16 µM, first compound 0.03 µM
[15] = second compound 3.16 µM, first compound 0.0949 µM
[16] = second compound 3.16 µM, first compound 0.3 µM
[17] = second compound 10 µM, first compound 0.00949 µM
[18] = second compound 10 µM, first compound 0.03 µM
[19] = second compound 10 µM, first compound 0.0949 µM
[20] = second compound 10 µM, first compound 0.3 µM

CCN(c1cc(-c2ccc(CN3CCOCC3)cc2)cc(C(=O)NCc2c(C)cc(C)[nH]c2=O)c1C)C1CCOCC1 + NC1CCC(NC2CC2c2ccccc2)CC1
> 3000 nM: IC50 (second compound 0.1 µM) | IC50 (second compound 0.316 µM) | IC50 (second compound 1 µM)
3000 nM: IC50 (second compound 3.16 µM)
< 9.49 nM: IC50 (second compound 10 µM)
inactive: viability, T/C [1] 76% | viability, T/C [2] 60.9% | viability, T/C [3] 66.9% | viability, T/C [4] 50.1% | viability, T/C (second compound 0.1 µM, first compound 0.949 µM) 56.8% | viability, T/C (second compound 0.1 µM, first compound 3 µM) 64.2% | viability, T/C [5] 66.3% | viability, T/C [6] 68.5% | viability, T/C [7] 72.2% | viability, T/C [8] 59.9% | viability, T/C (second compound 0.316 µM, first compound 0.949 µM) 55.1% | viability, T/C (second compound 0.316 µM, first compound 3 µM) 60% | viability, T/C [9] 60.3% | viability, T/C [10] 63.8% | viability, T/C [11] 55.4% | viability, T/C [12] 63.7% | viability, T/C (second compound 1 µM, first compound 0.949 µM) 58.3% | viability, T/C (second compound 1 µM, first compound 3 µM) 59.1% | viability, T/C [13] 60% | viability, T/C [14] 48.4% | viability, T/C [15] 54.3% | viability, T/C [16] 49.9% | viability, T/C (second compound 3.16 µM, first compound 0.949 µM) 48.7% | viability, T/C (second compound 3.16 µM, first compound 3 µM) 54.9% | viability, T/C [17] 40.4% | viability, T/C [18] 33.3% | viability, T/C [19] 30.8% | viability, T/C [20] 26% | viability, T/C (second compound 10 µM, first compound 0.949 µM) 21.1% | viability, T/C (second compound 10 µM, first compound 3 µM) 23.7%

Nc1ncn(C2CC(O)C(CO)S2)c(=O)n1 (stereo not given) + NC1CCC(NC2CC2c2ccccc2)CC1
inactive: viability, T/C (second compound 0.1 µM, first compound 0.000949 µM) 47.8% | viability, T/C (second compound 0.1 µM, first compound 0.003 µM) 27.1% | viability, T/C (second compound 0.316 µM, first compound 0.000949 µM) 55.8% | viability, T/C (second compound 0.316 µM, first compound 0.003 µM) 26.6% | viability, T/C [5] 12.1% | viability, T/C (second compound 1 µM, first compound 0.000949 µM) 51.4% | viability, T/C (second compound 1 µM, first compound 0.003 µM) 26.6% | viability, T/C (second compound 3.16 µM, first compound 0.000949 µM) 47.7% | viability, T/C (second compound 3.16 µM, first compound 0.003 µM) 23.7% | viability, T/C (second compound 10 µM, first compound 0.000949 µM) 25.3%
1.01 nM: IC50 (second compound 1 µM)
1.19 nM: IC50 (second compound 0.316 µM)
< 0.949 nM: IC50 (second compound 0.1 µM) | IC50 (second compound 3.16 µM) | IC50 (second compound 10 µM)
active: viability, T/C [1] 8.74% | viability, T/C [2] 3.26% | viability, T/C [3] 1.8% | viability, T/C [4] 1.91% | viability, T/C [6] 3.64% | viability, T/C [7] 2.15% | viability, T/C [8] 1.98% | viability, T/C [9] 8.75% | viability, T/C [10] 3.07% | viability, T/C [11] 2.09% | viability, T/C [12] 1.41% | viability, T/C [13] 7.85% | viability, T/C [14] 2.42% | viability, T/C [15] 1.84% | viability, T/C [16] 1.65% | viability, T/C (second compound 10 µM, first compound 0.003 µM) 9.03% | viability, T/C [17] 3.09% | viability, T/C [18] 1.41% | viability, T/C [19] 0.7% | viability, T/C [20] 0.58%

O=C(C=Cn1cnc(-c2cc(C(F)(F)F)cc(C(F)(F)F)c2)n1)NNc1cnccn1 + NC1CCC(NC2CC2c2ccccc2)CC1
active: viability, T/C (second compound 0.1 µM, first compound 0.1 µM) 6.71% | viability, T/C (second compound 0.1 µM, first compound 0.316 µM) 2.42% | viability, T/C (second compound 0.1 µM, first compound 1 µM) 1.48% | viability, T/C (second compound 0.316 µM, first compound 0.1 µM) 6.77% | viability, T/C (second compound 0.316 µM, first compound 0.316 µM) 2.16% | viability, T/C (second compound 0.316 µM, first compound 1 µM) 8.93% | viability, T/C (second compound 1 µM, first compound 0.1 µM) 5.65% | viability, T/C (second compound 1 µM, first compound 0.316 µM) 2.43% | viability, T/C (second compound 1 µM, first compound 1 µM) 1.5% | viability, T/C (second compound 3.16 µM, first compound 0.1 µM) 5.74% | viability, T/C (second compound 3.16 µM, first compound 0.316 µM) 2.43% | viability, T/C (second compound 3.16 µM, first compound 1 µM) 1.51% | viability, T/C (second compound 10 µM, first compound 0.0316 µM) 7.59% | viability, T/C (second compound 10 µM, first compound 0.1 µM) 3.68% | viability, T/C (second compound 10 µM, first compound 0.316 µM) 1.66% | viability, T/C (second compound 10 µM, first compound 1 µM) 1.3%
inactive: viability, T/C (second compound 0.1 µM, first compound 0.00316 µM) 33.4% | viability, T/C (second compound 0.1 µM, first compound 0.01 µM) 20.6% | viability, T/C (second compound 0.1 µM, first compound 0.0316 µM) 11.6% | viability, T/C (second compound 0.316 µM, first compound 0.00316 µM) 40.1% | viability, T/C (second compound 0.316 µM, first compound 0.01 µM) 23.5% | viability, T/C (second compound 0.316 µM, first compound 0.0316 µM) 11.2% | viability, T/C (second compound 1 µM, first compound 0.00316 µM) 41.4% | viability, T/C (second compound 1 µM, first compound 0.01 µM) 21.7% | viability, T/C (second compound 1 µM, first compound 0.0316 µM) 9.68% | viability, T/C (second compound 3.16 µM, first compound 0.00316 µM) 32.9% | viability, T/C (second compound 3.16 µM, first compound 0.01 µM) 22.1% | viability, T/C (second compound 3.16 µM, first compound 0.0316 µM) 11% | viability, T/C (second compound 10 µM, first compound 0.00316 µM) 24.4% | viability, T/C (second compound 10 µM, first compound 0.01 µM) 15.7%
< 3.16 nM: IC50 (second compound 0.1 µM) | IC50 (second compound 0.316 µM) | IC50 (second compound 1 µM) | IC50 (second compound 3.16 µM) | IC50 (second compound 10 µM)
